Results reported in the kinase profiling compilation of Christmann-Franck et al. (2016).

Columns and labels:
Test in all cases: radiometric filter-binding kinase assay, Kinase HotSpot
Settings in all cases: compound 0.5 µM; ATP 10 µM
[1] = biological target: EPHB4 (human) (UniProt P54760)
[2] = biological target: CDK7 CCNH MNAT1 (human) (UniProt P50613+P51948+P51946)
[3] = biological target: MINK1 (human) (UniProt Q8N4C8)
[4] = biological target: CDK9 CCNT1 (human) (UniProt P50750+O60563)
[5] = biological target: PRKCB1 (human) (UniProt P05771)
[6] = biological target: ROCK1 (human) (UniProt Q13464)
[7] = biological target: ALK (human) (UniProt Q9UM73)
[8] = biological target: MAP3K14 (human) (UniProt Q99558)
[9] = biological target: SRC (human) (UniProt P12931)
[10] = biological target: MAPK8 (human) (UniProt P45983)
[11] = biological target: EPHA7 (human) (UniProt Q15375)
[12] = biological target: CAMK2A (human) (UniProt Q9UQM7)
[13] = biological target: MAP3K11 (human) (UniProt Q16584)
[14] = biological target: AKT3 (human) (UniProt Q9Y243)
[15] = biological target: CDK4 CCND1 (human) (UniProt P24385+P11802)
[16] = biological target: MLTK (human) (UniProt Q9NYL2)
Sequence of MLTK (human) (Q9NYL2 whole entry, looked up): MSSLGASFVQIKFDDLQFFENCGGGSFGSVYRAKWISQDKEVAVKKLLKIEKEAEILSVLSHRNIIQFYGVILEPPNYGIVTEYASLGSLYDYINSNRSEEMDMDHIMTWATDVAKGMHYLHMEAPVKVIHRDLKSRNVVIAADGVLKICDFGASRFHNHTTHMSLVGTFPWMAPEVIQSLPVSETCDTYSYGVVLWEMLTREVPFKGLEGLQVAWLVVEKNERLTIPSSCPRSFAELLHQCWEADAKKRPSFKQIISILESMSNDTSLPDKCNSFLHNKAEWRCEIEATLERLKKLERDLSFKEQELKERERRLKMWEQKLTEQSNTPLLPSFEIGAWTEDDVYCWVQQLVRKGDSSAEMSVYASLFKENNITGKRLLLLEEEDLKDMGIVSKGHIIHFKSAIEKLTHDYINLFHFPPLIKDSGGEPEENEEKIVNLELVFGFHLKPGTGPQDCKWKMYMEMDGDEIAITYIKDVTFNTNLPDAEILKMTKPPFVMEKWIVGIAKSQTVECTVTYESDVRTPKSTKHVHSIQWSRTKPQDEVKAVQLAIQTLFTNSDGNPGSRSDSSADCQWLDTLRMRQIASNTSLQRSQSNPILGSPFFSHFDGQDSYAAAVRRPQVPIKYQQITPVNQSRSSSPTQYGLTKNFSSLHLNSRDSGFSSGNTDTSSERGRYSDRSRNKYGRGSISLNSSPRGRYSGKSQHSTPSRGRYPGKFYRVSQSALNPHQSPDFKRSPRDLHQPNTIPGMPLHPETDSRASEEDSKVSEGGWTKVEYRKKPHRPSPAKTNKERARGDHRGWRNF

[17] = biological target: CLK3 (human) (UniProt P49761)
[18] = biological target: MAPK1 (human) (UniProt P28482)
[19] = biological target: TAOK2 (human) (UniProt Q9UL54)
[20] = biological target: GSG2 (human) (UniProt Q8TF76)
Sequence of GSG2 (human) (Q8TF76 whole entry, looked up): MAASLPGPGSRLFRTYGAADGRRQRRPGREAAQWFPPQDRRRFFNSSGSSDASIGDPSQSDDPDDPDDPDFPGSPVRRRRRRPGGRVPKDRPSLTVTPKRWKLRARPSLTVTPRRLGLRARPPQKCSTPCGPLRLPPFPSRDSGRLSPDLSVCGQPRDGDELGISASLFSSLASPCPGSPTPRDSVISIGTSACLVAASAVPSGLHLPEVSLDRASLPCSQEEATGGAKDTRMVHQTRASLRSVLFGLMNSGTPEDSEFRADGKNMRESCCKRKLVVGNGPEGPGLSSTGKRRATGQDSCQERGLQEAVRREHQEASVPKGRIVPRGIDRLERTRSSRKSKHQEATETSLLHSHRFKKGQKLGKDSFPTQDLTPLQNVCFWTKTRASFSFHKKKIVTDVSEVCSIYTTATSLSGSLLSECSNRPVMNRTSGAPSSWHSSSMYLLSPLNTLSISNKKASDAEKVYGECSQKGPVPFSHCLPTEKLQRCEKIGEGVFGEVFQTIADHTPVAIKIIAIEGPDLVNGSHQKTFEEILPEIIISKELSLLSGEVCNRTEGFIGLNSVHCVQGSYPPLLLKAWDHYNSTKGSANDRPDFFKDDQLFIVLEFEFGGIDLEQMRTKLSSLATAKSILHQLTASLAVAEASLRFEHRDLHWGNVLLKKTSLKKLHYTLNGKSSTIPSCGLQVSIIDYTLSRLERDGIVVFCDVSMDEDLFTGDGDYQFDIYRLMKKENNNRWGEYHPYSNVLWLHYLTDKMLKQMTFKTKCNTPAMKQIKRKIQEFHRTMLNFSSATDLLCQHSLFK

[21] = biological target: ABL2 (human) (UniProt P42684)
[22] = biological target: RPS6KA5 KD2 (human) (UniProt O75582)
Sequence of RPS6KA5 KD2 (human) (O75582 whole entry, looked up): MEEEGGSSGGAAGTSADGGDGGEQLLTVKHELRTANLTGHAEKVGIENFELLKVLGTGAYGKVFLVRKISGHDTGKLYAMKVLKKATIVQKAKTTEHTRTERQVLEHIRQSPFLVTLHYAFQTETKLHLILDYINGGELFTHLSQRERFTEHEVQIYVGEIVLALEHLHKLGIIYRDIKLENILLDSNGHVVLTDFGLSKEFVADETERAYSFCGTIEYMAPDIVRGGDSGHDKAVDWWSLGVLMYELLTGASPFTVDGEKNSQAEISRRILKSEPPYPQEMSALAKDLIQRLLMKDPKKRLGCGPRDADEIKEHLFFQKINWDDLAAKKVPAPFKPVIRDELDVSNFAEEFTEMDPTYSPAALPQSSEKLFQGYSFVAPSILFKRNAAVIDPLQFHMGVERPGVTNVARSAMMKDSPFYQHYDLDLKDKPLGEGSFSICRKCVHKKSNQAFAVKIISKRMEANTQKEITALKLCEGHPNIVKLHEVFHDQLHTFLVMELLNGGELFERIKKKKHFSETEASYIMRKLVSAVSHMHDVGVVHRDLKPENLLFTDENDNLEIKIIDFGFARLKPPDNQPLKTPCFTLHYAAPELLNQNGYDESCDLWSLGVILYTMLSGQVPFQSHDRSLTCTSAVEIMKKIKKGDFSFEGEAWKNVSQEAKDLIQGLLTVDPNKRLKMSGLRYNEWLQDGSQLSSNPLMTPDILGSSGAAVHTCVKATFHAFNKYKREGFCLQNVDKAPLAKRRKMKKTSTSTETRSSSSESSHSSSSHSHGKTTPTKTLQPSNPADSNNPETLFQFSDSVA

[23] = biological target: NEK9 (human) (UniProt Q8TD19)
[24] = biological target: PRKD3 (human) (UniProt O94806)
[25] = biological target: NEK4 (human) (UniProt P51957)
[26] = biological target: RPS6KA4 KD2 (human) (UniProt O75676)
[27] = biological target: MAP3K7 TAB1 (human) (UniProt O43318+Q15750)
[28] = biological target: MET (human) (UniProt P08581)
[29] = biological target: RIPK2 (human) (UniProt O43353)
[30] = biological target: EPHB2 (human) (UniProt P29323)
[31] = biological target: ROS1 (human) (UniProt P08922)
[32] = biological target: MARK2 (human) (UniProt Q7KZI7)
[33] = biological target: HIPK3 (human) (UniProt Q9H422)
[34] = biological target: NTRK3 (human) (UniProt Q16288)
[35] = biological target: CSF1R (human) (UniProt P07333)
[36] = biological target: VRK1 (human) (UniProt Q99986)
[37] = biological target: DAPK1 (human) (UniProt P53355)
Sequence of DAPK1 (human) (P53355 whole entry, looked up): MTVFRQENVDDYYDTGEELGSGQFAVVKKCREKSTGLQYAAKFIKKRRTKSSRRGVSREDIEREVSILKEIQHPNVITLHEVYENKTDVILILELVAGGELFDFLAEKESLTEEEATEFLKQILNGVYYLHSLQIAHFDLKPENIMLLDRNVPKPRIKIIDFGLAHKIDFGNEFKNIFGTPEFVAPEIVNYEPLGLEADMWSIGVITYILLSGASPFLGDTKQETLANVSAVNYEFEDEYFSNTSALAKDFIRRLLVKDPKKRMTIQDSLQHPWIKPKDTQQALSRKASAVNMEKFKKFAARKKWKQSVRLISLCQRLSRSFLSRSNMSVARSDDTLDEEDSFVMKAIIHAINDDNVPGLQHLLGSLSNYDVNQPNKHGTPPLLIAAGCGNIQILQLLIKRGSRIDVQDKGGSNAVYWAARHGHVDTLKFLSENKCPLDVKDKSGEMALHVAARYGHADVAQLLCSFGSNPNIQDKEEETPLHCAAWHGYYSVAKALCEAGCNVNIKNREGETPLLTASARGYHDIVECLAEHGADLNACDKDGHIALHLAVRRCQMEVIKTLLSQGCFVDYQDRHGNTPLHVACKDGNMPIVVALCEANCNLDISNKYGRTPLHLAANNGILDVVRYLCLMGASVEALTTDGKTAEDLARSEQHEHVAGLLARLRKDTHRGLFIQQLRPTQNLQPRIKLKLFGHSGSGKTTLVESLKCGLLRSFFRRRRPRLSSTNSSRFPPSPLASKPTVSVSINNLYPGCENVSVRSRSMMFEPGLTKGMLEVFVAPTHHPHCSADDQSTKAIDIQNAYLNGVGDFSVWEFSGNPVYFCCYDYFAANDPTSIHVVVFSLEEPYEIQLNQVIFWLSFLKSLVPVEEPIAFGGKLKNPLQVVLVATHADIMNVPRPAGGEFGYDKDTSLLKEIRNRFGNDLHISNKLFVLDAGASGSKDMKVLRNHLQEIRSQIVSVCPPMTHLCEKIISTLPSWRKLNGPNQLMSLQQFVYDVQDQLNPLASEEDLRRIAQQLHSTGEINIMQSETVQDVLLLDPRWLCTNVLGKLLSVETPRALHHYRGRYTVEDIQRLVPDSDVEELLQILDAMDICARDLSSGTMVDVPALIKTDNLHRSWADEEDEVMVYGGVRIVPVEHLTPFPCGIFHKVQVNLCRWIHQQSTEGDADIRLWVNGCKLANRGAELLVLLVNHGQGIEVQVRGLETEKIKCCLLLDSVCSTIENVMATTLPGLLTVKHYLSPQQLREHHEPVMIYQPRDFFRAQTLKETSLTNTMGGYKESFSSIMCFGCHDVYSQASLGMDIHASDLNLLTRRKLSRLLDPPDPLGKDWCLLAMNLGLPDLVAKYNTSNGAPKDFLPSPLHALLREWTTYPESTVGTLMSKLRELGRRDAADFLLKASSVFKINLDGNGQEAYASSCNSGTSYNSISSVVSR

[38] = biological target: MUSK (human) (UniProt O15146)
[39] = biological target: CDK5 CDK5R1 p35 (human) (UniProt Q00535+Q15078)
[40] = biological target: GSK3B (human) (UniProt P49841)

Sequence of CDK9 CCNT1 (human) (O60563 whole entry, looked up): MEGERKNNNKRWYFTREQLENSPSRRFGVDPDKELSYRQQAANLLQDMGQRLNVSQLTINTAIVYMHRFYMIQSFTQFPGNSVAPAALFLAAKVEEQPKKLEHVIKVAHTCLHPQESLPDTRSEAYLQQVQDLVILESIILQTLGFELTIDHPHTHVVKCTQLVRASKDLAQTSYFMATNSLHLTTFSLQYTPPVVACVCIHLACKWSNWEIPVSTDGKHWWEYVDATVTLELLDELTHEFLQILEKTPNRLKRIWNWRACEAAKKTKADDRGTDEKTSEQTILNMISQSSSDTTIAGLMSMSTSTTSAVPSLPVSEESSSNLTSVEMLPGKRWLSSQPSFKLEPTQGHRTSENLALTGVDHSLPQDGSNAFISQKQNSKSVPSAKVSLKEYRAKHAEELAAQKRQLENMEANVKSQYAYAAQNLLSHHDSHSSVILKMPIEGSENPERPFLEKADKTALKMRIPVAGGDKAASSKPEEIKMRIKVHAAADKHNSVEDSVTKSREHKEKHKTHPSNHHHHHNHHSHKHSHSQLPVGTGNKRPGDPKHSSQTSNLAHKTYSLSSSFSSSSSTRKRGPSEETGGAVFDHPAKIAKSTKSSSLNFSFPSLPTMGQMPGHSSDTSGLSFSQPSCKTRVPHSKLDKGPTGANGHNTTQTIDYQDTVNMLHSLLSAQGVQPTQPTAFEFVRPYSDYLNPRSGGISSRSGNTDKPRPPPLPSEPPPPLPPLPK
Sequence of CDK9 CCNT1 (human) (P50750 whole entry, looked up): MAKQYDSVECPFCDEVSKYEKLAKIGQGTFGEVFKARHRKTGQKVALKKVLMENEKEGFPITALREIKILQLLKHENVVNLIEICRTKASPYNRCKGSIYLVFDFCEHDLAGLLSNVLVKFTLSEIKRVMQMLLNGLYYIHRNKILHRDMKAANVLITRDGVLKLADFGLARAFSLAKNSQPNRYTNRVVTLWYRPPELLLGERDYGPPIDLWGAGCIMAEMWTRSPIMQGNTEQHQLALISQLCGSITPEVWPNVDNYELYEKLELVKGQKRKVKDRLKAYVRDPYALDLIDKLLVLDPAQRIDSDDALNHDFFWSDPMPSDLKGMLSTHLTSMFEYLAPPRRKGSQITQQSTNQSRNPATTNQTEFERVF

| SMILES | residual activity [1] [%] | residual activity [2] [%] | residual activity [3] [%] | residual activity [4] [%] | residual activity [5] [%] | residual activity [6] [%] | residual activity [7] [%] | residual activity [8] [%] | residual activity [9] [%] | residual activity [10] [%] | residual activity [11] [%] | residual activity [12] [%] | residual activity [13] [%] | residual activity [14] [%] | residual activity [15] [%] | residual activity [16] [%] | residual activity [17] [%] | residual activity [18] [%] | residual activity [19] [%] | residual activity [20] [%] | also measured |
| --- | --- | --- | --- | --- | --- | --- | --- | --- | --- | --- | --- | --- | --- | --- | --- | --- | --- | --- | --- | --- | --- |
| COc1ccc2c(c[n+](C)c3c4cc5c(cc4ccc23)OCO5)c1OC | 91.7 | 91.9 | 97.5 | 96.4 | 100 | 99.4 | 105 | 88.1 | 91.5 | 89.8 | 95.4 | 99.5 | 95 | 103 | 87.5 | 94.7 | 95.2 | 101 | 95 | 98.8 | residual activity [21]: 96.7%; residual activity [22]: 83.3%; residual activity [23]: 97%; residual activity [24]: 99.3%; residual activity [25]: 96.6%; residual activity [26]: 88.3%; residual activity [27]: 100%; residual activity [28]: 94.7%; residual activity [29]: 105%; residual activity [30]: 97.1%; residual activity [31]: 119%; residual activity [32]: 95%; residual activity [33]: 96.6%; residual activity [34]: 95.2%; residual activity [35]: 99%; residual activity [36]: 106%; residual activity [37]: 86.7%; residual activity [38]: 98.2%; residual activity [39]: 95.7%; residual activity [40]: 88.3% |
| O=C(Nc1cccc(Nc2nccc(Nc3cccc(C(F)(F)F)c3)n2)c1)C1CC1 | 91.3 | 92.6 | 108 | 86.8 | 94.7 | 101 | 99.8 | 109 | 64.5 | 85.7 | 112 | 98 | 89.5 | 108 | 101 | 110 | 104 | 89 | 92.4 | 101 | residual activity [21]: 83.8%; residual activity [22]: 101%; residual activity [23]: 102%; residual activity [24]: 91.9%; residual activity [25]: 83.4%; residual activity [26]: 104%; residual activity [27]: 87.4%; residual activity [28]: 87.7%; residual activity [29]: 81.6%; residual activity [30]: 97.8%; residual activity [31]: 65.5%; residual activity [32]: 97%; residual activity [33]: 104%; residual activity [34]: 77.3%; residual activity [35]: 63.1%; residual activity [36]: 88.2%; residual activity [37]: 83.5%; residual activity [38]: 101%; residual activity [39]: 105%; residual activity [40]: 101% |
| Cc1ccc(S(=O)(=O)/C=C/C#N)cc1 | 102 | 98.2 | 111 | 98.2 | 101 | 93.2 | 103 | 103 | 102 | 74.7 | 99.8 | 103 | 98.2 | 93.7 | 103 | 94.7 | 106 | 100 | 89.7 | 101 | residual activity [21]: 104%; residual activity [22]: 109%; residual activity [23]: 95.6%; residual activity [24]: 96.1%; residual activity [25]: 94.3%; residual activity [26]: 82.8%; residual activity [27]: 99.9%; residual activity [28]: 94.7%; residual activity [29]: 93.8%; residual activity [30]: 104%; residual activity [31]: 94.1%; residual activity [32]: 84%; residual activity [33]: 100%; residual activity [34]: 95.5%; residual activity [35]: 93.6%; residual activity [36]: 105%; residual activity [37]: 100%; residual activity [38]: 107%; residual activity [39]: 97%; residual activity [40]: 109% |
| c1ccc(-c2n[nH]c3c2oc2ccccc23)cc1 | 112 | 101 | 81.4 | 83.9 | 103 | 99.1 | 95.9 | 71.8 | 81.3 | 79.6 | 104 | 110 | 91.8 | 84.4 | 87.9 | 96.2 | 91 | 118 | 80.7 | 99.3 | residual activity [21]: 86.7%; residual activity [22]: 94.9%; residual activity [23]: 99%; residual activity [24]: 99.6%; residual activity [25]: 92.9%; residual activity [26]: 90.2%; residual activity [27]: 104%; residual activity [28]: 98.4%; residual activity [29]: 78.8%; residual activity [30]: 83.1%; residual activity [31]: 107%; residual activity [32]: 92.9%; residual activity [33]: 80.7%; residual activity [34]: 42.7%; residual activity [35]: 78.1%; residual activity [36]: 83.1%; residual activity [37]: 71%; residual activity [38]: 72.6%; residual activity [39]: 85.8%; residual activity [40]: 105% |
| O=c1cc(N2CCOCC2)oc2c1ccc1ccccc12 | 96.3 | 98.2 | 96 | 99.1 | 93.4 | 94.2 | 104 | 81.2 | 99.3 | 97.2 | 98.6 | 99.4 | 99.2 | 98.3 | 95.6 | 98 | 81.1 | 104 | 108 | 85.6 | residual activity [21]: 101%; residual activity [22]: 103%; residual activity [23]: 102%; residual activity [24]: 98.8%; residual activity [25]: 97.4%; residual activity [26]: 99.4%; residual activity [27]: 98.3%; residual activity [28]: 161%; residual activity [29]: 104%; residual activity [30]: 85%; residual activity [31]: 97%; residual activity [32]: 101%; residual activity [33]: 107%; residual activity [34]: 103%; residual activity [35]: 103%; residual activity [36]: 93.3%; residual activity [37]: 90.9%; residual activity [38]: 75.6%; residual activity [39]: 96.7%; residual activity [40]: 124% |
